Test results taken from paper PMC4865888 (Cell chemical biology, 2016).

Legend:
DENV2 NGC [1] = test: time-of-addition experiments, BHK21 cells, viral plaque assay; type: cell-based, dengue virus; settings: 15 μM, BHK21, MOI 1, yield at 24 hpi
DENV2 NGC [2] = test: low MOI multiple replication cycle infection experiment; type: cell-based, dengue virus; settings: MOI 0.01, treatment delayed until 24 hpi; GNF-2 15 μM, 8b 5 μM; titers at 48, 72 hpi
[3] = biological target: recombinant, soluble DENV2 E protein (sE), prefusion (Dengue virus type 2, UniProt P14340); test: Alphascreen assay, GNF2-biotin and prefusion sE; settings: increasing concentrations, 20 nM to 10 μM
DENV2 NGC [4] = settings: dose-response, inhibitor present during entire single round, MOI 1, 24 hpi

NC(=O)c1cccc(-c2cc(Nc3ccc(OC(F)(F)F)cc3)ncn2)c1 [GNF-2]
antiviral effect when added post-infection (POST, 0-5 hours) (DENV2 NGC [1]): inhibit DENV2
antiviral effect when pre-incubated with viral inoculum (PRE virus) (DENV2 NGC [1]): additional antiviral activity
inhibition of DENV2 over multiple replication cycles (DENV2 NGC [2]): inhibit DENV2
competition with GNF2-biotin for prefusion sE (Alphascreen signal) [3]: decrease the Alphascreen signal
antiviral activity in single-cycle virus yield reduction assay (DENV2 NGC [4]): more antiviral activity than imatinib
